Experimental data published in patent publication US7915291B2, “Hepatitis C virus inhibitors” (Bristol-Myers Squibb Company, priority 2002, dated 2011).
Where two headings read alike, the source gives them in different places.

How the values were obtained:
[1] = target: HCV NS3/4A protease complex, BMS strain (UniProt P27958, C1454S/C1711G, species not given/STRAIN_BMS); assay: Recombinant HCV NS3/4A protease complex FRET peptide assay (BMS strain); type: biochemical, HCV genotype 1a
In short: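 Recombinant BMS-strain NS3/4A (His-tagged NS4A with three-lysine tail, E. coli) at 2-3 nM preincubated 1 min with compound, then 2 μM ester-linked NS4A/NS4B-based FRET peptide added. Fluorescence followed in real time ~15 min at 25° C. Percent inhibition from slope of linear fluorescence change versus no-compound control.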

[2] = tested on: HCV replicon in Huh7 cells; assay: HCV replicon cell-based assay; design: species or system HCV strain 1B; settings: Hepatitis C virus, Huh-7; HCV replicon, Huh7 cells; read-out: EC50 range
[3] = NS3/4A BMS strain; read-out: IC50 range

SMILES | IC50 [1, 3] [nM] | EC50 [2] [nM] | IC50 ([1]; read-out: IC50 range; NS3/4A BMS strain) [nM]
C=C[C@@H]1C[C@]1(NC(=O)[C@@H]1C[C@@H](Oc2nccc3ccccc23)CN1C(=O)[C@@H](NC(=O)Oc1ccc(OC)cc1)C(C)(C)C)C(=O)NS(=O)(=O)C1CC1 [Compound 123] | < 100 | 100 to 1000 | 
C=C[C@@H]1C[C@]1(NC(=O)[C@@H]1C[C@@H](Oc2nccc3cc(OC)ccc23)CN1C(=O)[C@@H](NC(=O)OC(C)(C)CC)[C@H](C)OC)C(=O)NS(=O)(=O)C1CC1 [Compound 105] |  | < 100 | < 100
C=CC1CC1(NC(=O)C1CC(Oc2nccc3c(OC(F)F)cccc23)CN1C(=O)C(NC(=O)OC(C)(C)C)C(C)(C)C)C(=O)NS(=O)(=O)C1CC1 (centres unmarked) [Compound 285] | < 100 | < 100 | 
C=C[C@@H]1C[C@]1(NC(=O)[C@@H]1C[C@@H](Oc2nccc3c4c(ccc23)OCC4)CN1C(=O)[C@@H](NC(=O)OC(C)(C)C)C(C)(C)C)C(=O)NS(=O)(=O)C1CC1 [Compound 267] | < 100 | < 100 | 
C=CC1C[C@]1(NC(=O)[C@@H]1C[C@@H](Oc2nccc3c(C(=O)c4cccs4)c(OC)ccc23)CN1C(=O)[C@@H](NC(=O)OC(C)(C)C)C(C)(C)C)C(=O)NS(=O)(=O)C1CC1 (some centres unmarked) [Compound 209] | < 100 | 100 to 1000 | 
C=C[C@@H]1C[C@]1(NC(=O)[C@@H]1C[C@@H](Oc2cccc(-c3ccccc3)n2)CN1C(=O)[C@@H](NC(=O)OC(C)(C)C)C(C)(C)C)C(=O)NS(=O)(=O)C1CC1 [Compound 436] | < 100 | 100 to 1000 | 
C=C[C@@H]1C[C@]1(NC(=O)[C@@H]1C[C@@H](Oc2nccc3cc(OC)ccc23)CN1C(=O)[C@@H](NC(=O)OC(C)(C)C(F)(F)F)[C@H](C)OC)C(=O)NS(=O)(=O)C1CC1 [Compound 106] | < 100 | < 100 | 
C=CC1C[C@]1(NC(=O)[C@@H]1C[C@@H](Oc2nc(-c3nccs3)c(OC)c3ccccc23)CN1C(=O)[C@@H](NC(=O)OC(C)(C)C)C(C)(C)C)C(=O)NS(=O)(=O)C1CC1 (stereo partly drawn) [Compound 232, BOCNH-P3(L-t-BuGly)-P2[(4R)-(4-methoxy-3-thiazol-2-yl -isoquinolin-1-oxo)-S-proline]-P1(1R,2S VinylAcca)-CONHSO2Cyclopropane] | < 100 | < 100 | 
C=CC1C[C@]1(NC(=O)[C@@H]1C[C@@H](Oc2nccc(-c3cccs3)n2)CN1C(=O)[C@@H](NC(=O)CC1CC1)C(C)(C)C)C(=O)NS(=O)(=O)C1CC1 (some centres unmarked) [Compound 338] | < 100 | 1000 to 10000 | 
C=C[C@@H]1C[C@]1(NC(=O)[C@@H]1C[C@@H](Oc2nc(-c3ccncc3)cc3ccccc23)CN1C(=O)[C@@H](NC(=O)OC(C)(C)C)C(C)(C)C)C(=O)NS(=O)(=O)C1CC1 [Compound 27] | < 100 | < 100 | 
C=CC1C[C@]1(NC(=O)[C@@H]1C[C@@H](Oc2cnc3ccccc3n2)CN1C(=O)[C@@H](NC(=O)OC(C)(C)C)C(C)(C)C)C(=O)NS(=O)(=O)C1CC1 (stereo partly drawn) [Compound 237, BOCNH-P3(L-t-BuGly)-P2[(4R)-(quinoxaline-2-oxo)-S-proline]-P1(1R,2S VinylAcca)-CONHSO2Cyclopropane] | < 100 | 100 to 1000 | 
C=C[C@@H]1C[C@]1(NC(=O)[C@@H]1C[C@@H](Oc2nccc3ccc(C)cc23)CN1C(=O)[C@@H](NC(=O)OC(C)(C)C)C(C)(C)C)C(=O)NS(=O)(=O)C1CC1 [Compound 259] | < 100 | < 100 | 
C=C[C@@H]1C[C@]1(NC(=O)[C@@H]1C[C@@H](Oc2cncc(-c3nccs3)c2)CN1C(=O)[C@@H](NC(=O)OC(C)(C)C)C(C)(C)C)C(=O)NS(=O)(=O)C1CC1 [Compound 432] | < 100 | 100 to 1000 | 
C=CCCCCC[C@H](NC(=O)OC(C)(C)C)C(=O)N1C[C@H](Oc2ccnc3cc(OC)ccc23)C[C@H]1C(=O)N[C@]1(C(=O)NS(=O)(=O)C2CC2)C[C@H]1C=C [Compound 377] | < 100 | 100 to 1000 | 
C=CC1C[C@]1(NC(=O)[C@@H]1C[C@@H](Oc2noc3ccccc23)CN1C(=O)[C@@H](NC(=O)OC(C)(C)C)C(C)(C)C)C(=O)NS(=O)(=O)C1CC1 (some centres unmarked) [Compound 334] | 100 to 1000 | 100 to 1000 | 
C=C[C@@H]1C[C@]1(NC(=O)[C@@H]1C[C@@H](Oc2nc(C#N)cc3ccccc23)CN1C(=O)[C@@H](NC(=O)OC(C)(C)C)C(C)(C)C)C(=O)NS(=O)(=O)C1CC1 [Compound 32] | < 100 | < 100 | 
C=CC1C[C@]1(NC(=O)[C@@H]1C[C@@H](Oc2nnc(-n3cncn3)c3ccccc23)CN1C(=O)[C@@H](NC(=O)OC(C)(C)C)C(C)(C)C)C(=O)NS(=O)(=O)C1CC1 (stereo partly drawn) [Compound 198, BOCNH-P3(L-tert-BuGly)-P2[(4R)-(4-(1,2,4-triazo-1-yl)phthalazine-1-oxo)-S-proline]-P1(1R,2S Vinyl Acca)-CONHSO2-Cyclopropane] | < 100 | 100 to 1000 | 

SMILES | IC50 [1, 3] [nM] | EC50 [2] [nM] | IC50 ([1]; read-out: IC50 range; NS3/4A BMS strain) [nM]
C=CC1C[C@]1(NC(=O)[C@@H]1C[C@@H](Oc2nccc3c(SC)c(OC)ccc23)CN1C(=O)[C@@H](NC(=O)OC(C)(C)C)C(C)(C)C)C(=O)NS(=O)(=O)C1CC1 (stereo partly drawn) [Compound 207, BOCNH-P3(L-t-BuGly)-P2 [(4R)-(6-methoxy-5-methylthio-isoquinolin-1-oxo)-S-proline]-P1(1R,2S VinylAcca)-CONHSO2Cyclopropane] | < 100 | < 100 | 
C=C[C@@H]1C[C@]1(NC(=O)[C@@H]1C[C@@H](Oc2nccc3cc(OC)ccc23)CN1C(=O)[C@@H](NC(=O)O[C@H]1CCOC1)C(C)(C)C)C(=O)NS(=O)(=O)C1CC1 [Compound 19] | < 100 | < 100 | 
C=C[C@@H]1C[C@]1(NC(=O)[C@@H]1C[C@@H](Oc2nccc3c(C(F)(F)F)cccc23)CN1C(=O)[C@@H](NC(=O)OC(C)(C)C)C(C)(C)C)C(=O)NS(=O)(=O)C1CC1 [Compound 270] | < 100 | 100 to 1000 | 
C=CC1C[C@]1(NC(=O)[C@@H]1C[C@@H](Oc2nccc3c4c(ccc23)OCO4)CN1C(=O)[C@@H](NC(=O)OC(C)(C)C)C(C)(C)C)C(=O)NS(=O)(=O)C1CC1 (stereo partly drawn) [Compound 211, BOCNH-P3(L-t-BuGly)-P2-[(4R)-(1,3-Dioxa-7-aza-cyclopenta[α]naphthalen-6-ol)-S -proline]-P1(1R,2S VinylAcca)-CONHSO2Cyclopropane] | < 100 | < 100 | 
C=C[C@@H]1C[C@]1(NC(=O)[C@@H]1C[C@@H](Oc2ccc3c(OC)cnc(Cl)c3c2)CN1C(=O)[C@@H](NC(=O)OC(C)(C)C)C(C)(C)C)C(=O)NS(=O)(=O)C1CC1 [Compound 283] | < 100 | 100 to 1000 | 
C=CC1C[C@]1(NC(=O)[C@@H]1C[C@@H](Oc2nccc3cc(C(C)C)ccc23)CN1C(=O)[C@@H](NC(=O)OC(C)(C)C)C(C)(C)C)C(=O)NS(=O)(=O)C1CC1 (stereo partly drawn) [Compound 190, BOCNH-P3(L-tert-BuGly)-P2[(4R)-(6-isopropyl isoquinolin-1-oxo)-S-proline]-P1(1R,2S Vinyl Acca)-CONHSO2-Cyclopropane] | < 100 | 100 to 1000 | 
C=C[C@@H]1C[C@]1(NC(=O)[C@@H]1C[C@@H](Oc2cc(-c3ccccc3)nc3nc(C)ccc23)CN1C(=O)[C@@H](NC(=O)OC(C)(C)C)C(C)(C)C)C(=O)NS(=O)(=O)C1CC1 [Compound 2] | < 100 | 100 to 1000 | 
C=C[C@@H]1C[C@]1(NC(=O)[C@@H]1C[C@@H](Oc2nccc3cc(OC)ccc23)CN1C(=O)[C@@H](NC(=O)N(C)[C@H](C(=O)OC)C(C)C)C(C)(C)C)C(=O)NS(=O)(=O)C1CC1 [Compound 154] | < 100 | 100 to 1000 | 
C=C[C@@H]1C[C@]1(NC(=O)[C@@H]1C[C@@H](Oc2nc(OC)cc3ccccc23)CN1C(=O)[C@@H](NC(=O)OC(C)(C)C)C(C)(C)C)C(=O)NS(=O)(=O)C1CC1 [Compound 35] | < 100 | < 100 | 
C=C[C@@H]1C[C@]1(NC(=O)[C@@H]1C[C@@H](Oc2nccc3c(Cl)cccc23)CN1C(=O)[C@@H](NC(=O)OC(C)(C)C)C(C)(C)C)C(=O)NS(=O)(=O)C1CC1 [Compound 254] | < 100 | < 100 | 
C=CC1CC1(NC(=O)[C@@H]1C[C@@H](Oc2cc(C(F)(F)F)nc3ccc(F)cc23)CN1C(=O)[C@@H](NC(=O)OC(C)(C)C)C(C)(C)C)C(=O)NS(=O)(=O)C1CC1 (some centres unmarked) [Compound 450] | < 100 | 100 to 1000 | 
C=C[C@@H]1CC1(NC(=O)[C@@H]1CC(Oc2nccc3cc(OC)ccc23)CN1C(=O)[C@@H](NC(=O)O[C@@H]1C[C@H](C)CC[C@H]1C(C)C)C(C)(C)C)C(=O)NS(=O)(=O)C1CC1 (some centres unmarked) [Compound 66] | < 100 | 100 to 1000 | 
C=C[C@@H]1C[C@]1(NC(=O)[C@@H]1C[C@@H](Oc2nccc3c(OC)c(OC)ccc23)CN1C(=O)[C@@H](NC(=O)OC(C)(C)C)C(C)(C)C)C(=O)NS(=O)(=O)C1CC1 [Compound 272] | < 100 | < 100 | 
C=C[C@@H]1C[C@]1(NC(=O)[C@@H]1C[C@@H](Oc2nccc3cc(OC)ccc23)CN1C(=O)[C@@H](NC(=O)OC1(C)CCCC1)C(C)(C)C)C(=O)NS(=O)(=O)C1CCC1 [Compound 384] | < 100 | < 100 | 
C=C[C@@H]1C[C@]1(NC(=O)[C@@H]1C[C@@H](Oc2nccc3ccccc23)CN1C(=O)[C@@H](NC(=O)Oc1ccccc1)C(C)(C)C)C(=O)NS(=O)(=O)C1CC1 [Compound 121] | < 100 | 100 to 1000 | 
C=C[C@@H]1C[C@]1(NC(=O)[C@@H]1C[C@@H](Oc2nccc3cc(OC)ccc23)CN1C(=O)[C@H](CC(=O)OCc1ccccc1)NC(=O)OC(C)(C)C)C(=O)NS(=O)(=O)C1CC1 [Compound 137] | < 100 | < 100 | 
C=C[C@@H]1C[C@]1(NC(=O)[C@@H]1C[C@@H](Oc2nccc3c4c(ccc23)CCO4)CN1C(=O)[C@@H](NC(=O)OC(C)(C)C)C(C)(C)C)C(=O)NS(=O)(=O)C1CC1 [Compound 265] | < 100 | < 100 | 
